Measured values published in PMC5739597, “Discovery and evaluation of triple inhibitors of VEGFR-2, TIE-2 and EphB4 as anti-angiogenic and anti-cancer agents” (Oncotarget, 2017).

Key:
FGFR-4 = FGFR-4 (Homo sapiens, UniProt P22455); assay: Kinase-Glo Plus RTK selectivity assay, FGFR-4; assay type: biochemical; conditions: 10 μM ATP
Experimental: (§1) A 50 μL reaction mixture contains 40 mM Tris, pH 7.4, 10 mM MgCl2, 0.1 mg/ml BSA, 1 mM DTT, 10 μM ATP, kinase and substrate (0.2 mg/mL Poly(Glu, Tyr)/10 μM ATP). The test compounds were diluted in 10% DMSO and 5 μL of the dilution was added to a 50 μL reaction so that the final concentration of DMSO is 1% in all of reactions. The assay was performed using Kinase-Glo Plus luminescence kinase assay kit. It measures kinase activity by quantitating the amount of ATP remaining in solution following a kinase reaction. The luminescent signal from the assay is correlated with the amount of ATP present and is inversely correlated with the amount of kinase activity. The IC50 values were calculated using nonlinear regression with normalized dose−response fit using Prism GraphPad software.

[1] = tested on: human breast cancer cell lines (MCF-7); assay: Anti-proliferative MTT assay, MCF-7; assay type: cell-based; conditions: MCF7, 48 h
Experimental: (§2) These RTKs play critical roles in the proliferation of various cancers. Therefore, RTKs inhibition generally translate well into anti-proliferation activity.
(§3) Exponentially growing cells were harvested and plated in 96-well plates at a concentration of 1×10^4 cells/well per well, and then were incubated at 37°C for 24 h. […] Subsequently, 22 μL fresh MTT (5 mg/mL) was added to each well and incubated at 37°C for 4 h. […] DMSO was added to each well after supernatant was discarded. Absorbance values were determined by a microplate reader (Bio-Rad Instruments) at 490 nm. The IC50 values were calculated according to inhibition ratios.

[2] = tested on: human cervical cancer cell line (HeLa); assay: Anti-proliferative MTT assay, HeLa; assay type: cell-based; conditions: 48 h
Experimental: as §2, §3

VEGFR-2 = assay: Western blot of VEGFR-2 level and phosphorylation in EA.hy926 cells; assay type: cell-based, human
Experimental: The expression and phosphorylation of VEGFR-2 in EA.hy926 cells were assessed using western blot analysis with various antibodies. […] Cell lysates containing equal amounts of protein were separated by SDS polyacrylamide gel electrophoresis and transferred to polyvinylidene difluoride membranes. After being blocked in 5% nonfat milk in Tris-buffered saline with 0.1% Tween 20, pH 7.6, the membranes were incubated with the appropriate primary antibodies at 4°C overnight and then exposed to secondary antibodies for 2 h at room temperature. Immunoreactive proteins were visualized using the enhanced chemiluminescence system from Pierce Chemical.

EphB4 = target: T1, EphB4 (Homo sapiens, UniProt P54760); assay: ADP-Glo in vitro RTK inhibition assay, EphB4; assay type: biochemical; conditions: ATP 50 μM
T1 sequence (P54760 16-987): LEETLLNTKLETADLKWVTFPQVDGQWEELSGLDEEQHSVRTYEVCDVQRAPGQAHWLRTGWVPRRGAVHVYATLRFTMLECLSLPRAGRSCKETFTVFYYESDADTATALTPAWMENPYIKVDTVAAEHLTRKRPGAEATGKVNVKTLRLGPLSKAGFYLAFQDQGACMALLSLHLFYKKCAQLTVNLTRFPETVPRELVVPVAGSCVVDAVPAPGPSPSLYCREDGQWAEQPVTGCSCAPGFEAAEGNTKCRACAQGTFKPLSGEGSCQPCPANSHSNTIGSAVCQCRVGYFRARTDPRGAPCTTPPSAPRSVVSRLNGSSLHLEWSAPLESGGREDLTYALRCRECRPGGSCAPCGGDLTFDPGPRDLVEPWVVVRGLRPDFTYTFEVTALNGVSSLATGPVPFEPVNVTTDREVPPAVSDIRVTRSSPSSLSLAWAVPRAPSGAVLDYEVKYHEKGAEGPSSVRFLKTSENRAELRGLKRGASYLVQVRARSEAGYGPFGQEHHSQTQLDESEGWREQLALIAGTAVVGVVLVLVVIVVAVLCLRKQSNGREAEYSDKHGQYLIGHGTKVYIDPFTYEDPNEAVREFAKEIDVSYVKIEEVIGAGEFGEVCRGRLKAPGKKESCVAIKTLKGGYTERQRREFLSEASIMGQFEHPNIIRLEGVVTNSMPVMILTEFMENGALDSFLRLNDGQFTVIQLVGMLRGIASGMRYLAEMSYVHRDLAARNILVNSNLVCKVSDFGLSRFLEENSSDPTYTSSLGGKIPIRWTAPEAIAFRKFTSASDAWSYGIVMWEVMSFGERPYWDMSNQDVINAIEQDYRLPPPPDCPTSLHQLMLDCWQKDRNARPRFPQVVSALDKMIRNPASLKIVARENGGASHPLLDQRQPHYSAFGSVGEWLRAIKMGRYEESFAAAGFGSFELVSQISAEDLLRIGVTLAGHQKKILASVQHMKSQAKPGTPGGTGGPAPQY
Experimental: In order to validate the direct effect of title compounds on VEGFR-2, Tie-2, and EphB4 kinases, we performed in vitro assay using the ADP-Glo Kinase Assay Kit (Promega, Wisconsin, USA).
The kinase assay was performed in a reaction mixture of final volume of 10 μL. […] The plate was incubated at 30°C for 1 h. After the plate was cooled at room temperature for 5 min, 5 μL of ADP-Glo reagent was added into each well to stop the reaction and consume the remaining […] within 40 min. At the end, 10 μL of kinase detection reagent was added into the well and incubated for 30 min to produce a luminescence signal. […] The assay plate was incubated at 30°C for 4 h. After the plate was cooled at room temperature for 5 min, 5 μL of ADP-Glo reagent was added into each well to stop the reaction and consume the remaining […] within 1 h. At the end, 10 μL of kinase detection reagent was added into each well and incubated for 30 min to produce a luminescence signal. The luminescence was read by VICTOR-X multi-label plate reader.

EGFR = EGFR (Homo sapiens, UniProt P00533); assay: Kinase-Glo Plus RTK selectivity assay, EGFR; assay type: biochemical; conditions: 10 μM ATP
EGFR, sequence (P00533 25-1210, species assumed): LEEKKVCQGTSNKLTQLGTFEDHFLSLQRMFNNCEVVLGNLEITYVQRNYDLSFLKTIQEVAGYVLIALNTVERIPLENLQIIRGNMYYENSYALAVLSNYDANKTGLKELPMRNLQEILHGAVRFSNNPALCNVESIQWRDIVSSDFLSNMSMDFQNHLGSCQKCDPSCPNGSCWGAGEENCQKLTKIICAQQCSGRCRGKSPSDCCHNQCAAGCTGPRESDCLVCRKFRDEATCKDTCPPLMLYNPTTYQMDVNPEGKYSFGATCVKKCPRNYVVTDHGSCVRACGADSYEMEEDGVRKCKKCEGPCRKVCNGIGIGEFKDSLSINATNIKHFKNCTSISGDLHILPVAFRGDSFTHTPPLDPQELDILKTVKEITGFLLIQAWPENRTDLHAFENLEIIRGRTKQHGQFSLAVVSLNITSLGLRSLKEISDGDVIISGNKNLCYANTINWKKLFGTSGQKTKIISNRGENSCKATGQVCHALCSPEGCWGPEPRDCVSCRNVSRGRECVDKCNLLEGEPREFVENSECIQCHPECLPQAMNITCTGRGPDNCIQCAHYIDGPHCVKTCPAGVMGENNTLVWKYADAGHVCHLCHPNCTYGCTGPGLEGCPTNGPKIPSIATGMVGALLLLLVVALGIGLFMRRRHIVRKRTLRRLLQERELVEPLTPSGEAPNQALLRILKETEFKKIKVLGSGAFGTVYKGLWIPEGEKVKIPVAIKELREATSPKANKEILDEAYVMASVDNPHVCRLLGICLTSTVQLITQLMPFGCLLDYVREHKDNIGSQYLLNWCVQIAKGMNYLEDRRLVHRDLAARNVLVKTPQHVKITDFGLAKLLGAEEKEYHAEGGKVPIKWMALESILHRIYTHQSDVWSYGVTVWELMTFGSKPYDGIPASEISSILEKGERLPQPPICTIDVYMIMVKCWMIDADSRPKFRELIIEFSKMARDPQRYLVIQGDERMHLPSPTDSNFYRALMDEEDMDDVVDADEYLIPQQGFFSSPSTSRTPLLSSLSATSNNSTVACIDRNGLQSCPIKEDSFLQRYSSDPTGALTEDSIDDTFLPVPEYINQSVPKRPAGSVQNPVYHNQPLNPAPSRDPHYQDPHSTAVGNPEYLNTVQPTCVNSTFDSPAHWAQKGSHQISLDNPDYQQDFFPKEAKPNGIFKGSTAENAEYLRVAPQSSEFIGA
Experimental: as §1

EA.hy926 cells = assay: Apoptosis detection assay (annexin V-FITC/PI flow cytometry); assay type: cell-based, human; conditions: 48 h, negative control 10.35%
Experimental: A substantial and dose-dependent proapoptotic activity in HECs at various concentrations for 48 h was observed. The apoptotic EA.hy926 cells (10.35%) of negative control group were depicted in Figure 3A.
The cells were then harvested by trypsinization and washed twice with cold PBS. After centrifugation and removal of the supernatants, EA.hy926 cells were re-suspended in 400 μL of 1×binding buffer which was then added to 5 μL of annexin V-FITC and incubated at room temperature for 15 min. After adding 10 μL of PI the cells were incubated at room temperature for another 15 min in the dark. The stained cells were analyzed by a flow cytometer (BD Accuri C6).

FGFR-4, sequence (P22455 22-802, species assumed): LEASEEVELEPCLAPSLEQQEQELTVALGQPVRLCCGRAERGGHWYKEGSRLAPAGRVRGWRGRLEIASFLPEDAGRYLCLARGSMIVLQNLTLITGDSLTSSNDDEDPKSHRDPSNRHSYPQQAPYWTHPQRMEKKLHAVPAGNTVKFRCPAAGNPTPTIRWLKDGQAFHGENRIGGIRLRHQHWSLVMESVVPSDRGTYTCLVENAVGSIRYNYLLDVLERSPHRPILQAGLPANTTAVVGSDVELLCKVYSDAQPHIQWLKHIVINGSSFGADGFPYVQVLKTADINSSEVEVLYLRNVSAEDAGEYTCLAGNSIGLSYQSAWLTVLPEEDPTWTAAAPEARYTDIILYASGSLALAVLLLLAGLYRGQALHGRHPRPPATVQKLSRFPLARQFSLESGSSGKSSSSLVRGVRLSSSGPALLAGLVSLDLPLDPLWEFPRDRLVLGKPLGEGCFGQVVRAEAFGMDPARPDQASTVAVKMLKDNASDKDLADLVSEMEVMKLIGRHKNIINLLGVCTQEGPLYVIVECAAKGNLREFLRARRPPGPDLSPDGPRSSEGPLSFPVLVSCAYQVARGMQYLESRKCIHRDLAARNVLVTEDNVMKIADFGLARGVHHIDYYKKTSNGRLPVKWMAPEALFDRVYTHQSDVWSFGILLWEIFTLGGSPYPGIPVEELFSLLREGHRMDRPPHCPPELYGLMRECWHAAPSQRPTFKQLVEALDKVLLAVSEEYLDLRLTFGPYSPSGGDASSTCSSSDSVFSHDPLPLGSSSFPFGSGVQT

IC50 (FGFR-4): > 500 nM
IC50 [1]: 2120 nM
IC50 [2]: 5.56 µM
IC50 (EphB4): 3.21 nM
IC50 (EGFR): 98.8 nM
Compound: O=C(Nc1ccc(-c2ccc3c(=O)[nH]cnc3c2)cc1)Nc1ccc(F)c(F)c1 [QDAU5, 1-(3,4-difluorophenyl)-3-(4-(4-oxo-3,4-dihydroquinazolin-7-yl)phenyl)urea]
VEGF-induced tyrosine phosphorylation of VEGFR-2 (VEGFR-2; EA.hy926, 48 h, then 50 ng/mL VEGF for 10 min): dose-dependently decreased
level of VEGFR-2 (VEGFR-2; VEGF-stimulated EA.hy926, 48 h): moderately reduced
percentage of early apoptotic cells (EA.hy926 cells; EA.hy926, 5 nM): 19.55%
percentage of early apoptotic cells (EA.hy926 cells; EA.hy926, 20 nM): 28.35%
percentage of early apoptotic cells (EA.hy926 cells; EA.hy926, 40 nM): 31.43%
